In patent US9725449B2, “Tricyclic compounds as anticancer agents” (BRISTOL-MYERS SQUIBB COMPANY, priority 2015, dated 2017) one finds IC50 data, which are given here for 24 molecules.

The target in the experiment is BRD4 (Homo sapiens, UniProt O60885). Description: Time resolved fluorescence resonance energy transfer (TR-FRET) binding assay, bromodomain BRD4. The conditions noted are these: one of the FRET assays described; read-out: FRET BRD4 IC50. (In general: In TR-FRET formats the signal depends on donor and acceptor labels being close together.)
A word on the IC50: it is the point on the concentration scale where inhibition reaches its midpoint. Turning to `[2H]C([2H])([2H])c1nnn(C)c1-c1cnc2c3c(OC)ncc(S(C)(=O)=O)c3n(C(c3cccc(F)c3)C3CCOCC3)c2c1` (single isomer, unassigned) [Example 86, 8-[(3-Fluorophenyl)(oxan-4-yl)methyl]-10-methanesulfonyl-13-methoxy-5-[4-(^2H3)methyl-1-methyl-1H-1,2,3-triazol-5-yl]-3,8,12-triazatricyclo[7.4.0.0^2,^7]trideca-1(13),2(7),3,5,9,11-hexaene], the IC50 was less than 0.01 µM.

Take `[2H]C([2H])([2H])c1nnn(C)c1-c1cnc2c3c(OCC4CCCO4)ncc(S(C)(=O)=O)c3n([C@H](c3ccccc3)C3CCOCC3)c2c1` (stereo partly drawn) [Example 109, 10-Methanesulfonyl-5-[4-(^2H3)methyl-1-methyl-1H-1,2,3-triazol-5-yl]-8-[(S)-oxan-4-yl(phenyl)methyl]-13-[(2R)-oxolan-2-ylmethoxy]-3,8,12-triazatricyclo[7.4.0.0^2,^7]trideca-1(13),2(7),3,5,9,11-hexaene]: the IC50 was less than 0.01 µM.

For `COc1nccc2c1c1ncc(-c3c(C)nnn3C)cc1n2[C@H](c1ccccc1F)C1CCOCC1` [Example 30, 5-(Dimethyl-1H-1,2,3-triazol-5-yl)-8-[(S)-(2-fluorophenyl)(oxan-4-yl)methyl]-13-methoxy-3,8,12-triazatricyclo[7.4.0.0^2,^7]trideca-1(9),2(7),3,5,10,12-hexaene], the IC50 is less than 0.001 µM.

On to `Cc1nnn(C)c1-c1cnc2c3c(OC(C)C)ncc(S(C)(=O)=O)c3n([C@H](c3ccccc3)C3CCOCC3)c2c1` [Example 57, 5-(Dimethyl-1H-1,2,3-triazol-5-yl)-10-methanesulfonyl-8-[(S)-oxan-4-yl(phenyl)methyl]-13-(propan-2-yloxy)-3,8,12-triazatricyclo[7.4.0.0^2,^7]trideca-1(13),2(7),3,5,9,11-hexaene], for which the concentration for half-maximal inhibition (IC50) was less than 0.001 µM.

On to `Cc1nnn(C)c1-c1cnc2c3cc(C(C)(C)O)cnc3n([C@H](c3ccccc3)C3CCOCC3)c2c1` [Example 350, 2-[5-(Dimethyl-1H-1,2,3-triazol-5-yl)-8-[(S)-oxan-4-yl(phenyl)methyl]-3,8,10-triazatricyclo[7.4.0.0^2,^7]trideca-1(13),2(7),3,5,9,11-hexaen-12-yl]propan-2-ol], for which the IC50 was less than 0.01 µM.

Consider `COc1ncc(C(C)(C)O)c2c1c1ncc(-c3c(C)nnn3C)cc1n2[C@H](c1ccccc1)C1CCOCC1` [Example 142, 2-[5-(Dimethyl-1H-1,2,3-triazol-5-yl)-13-methoxy-8-[(S)-oxan-4-yl(phenyl)methyl]-3,8,12-triazatricyclo[7.4.0.0^2,^7]trideca-1(9),2,4,6,10,12-hexaen-10-yl]propan-2-ol], for which the half-maximal inhibitory concentration (IC50) was less than 0.01 µM.

As to `COc1nnn(C)c1-c1cnc2c3ccc(Cl)nc3n([C@H](c3ccccc3)C3CCOCC3)c2c1` [Example 167, 11-Chloro-5-(4-methoxy-1-methyl-1H-1,2,3-triazol-5-yl)-8-[(S)-oxan-4-yl(phenyl)methyl]-3,8,10-triazatricyclo[7.4.0.0^2,^7]trideca-1(9),2(7),3,5,10,12-hexaene], the half-maximal inhibitory concentration (IC50) is less than 1.5 µM.

On to `Cc1nnn(C)c1-c1cnc2c3ccc(N4CCN(C5CCN(C)CC5)CC4)nc3n([C@H](c3ccccc3F)C3CCOCC3)c2c1` [Example 270, 5-(Dimethyl-1H-1,2,3-triazol-5-yl)-8-[(S)-(2-fluorophenyl)(oxan-4-yl)methyl]-11-[4-(1-methylpiperidin-4-yl)piperazin-1-yl]-3,8,10-triazatricyclo[7.4.0.0^2,^7]trideca-1(13),2(7),3,5,9,11-hexaene], for which the 50% inhibitory concentration (IC50) is less than 0.001 µM.

For `Cc1cc([C@H](C2CCOCC2)n2c3cc(-c4c(C)nnn4C)ncc3c3ncc(C(C)(C)O)cc32)no1` [Example 365], the IC50 is less than 0.01 µM.

As to `[2H]C([2H])([2H])c1nnn(C)c1-c1cnc2c3ccc(N4CCS(=O)(=O)CC4)nc3n([C@H](c3ccccc3)C3CCOCC3)c2c1` [Example 185, 4-{5-[4-(^2H3)Methyl-1-methyl-1H-1,2,3-triazol-5-yl]-8-[(S)-oxan-4-yl(phenyl)methyl]-3,8,10-triazatricyclo[7.4.0.0^2,^7]trideca-1(9),2(7),3,5,10,12-hexaen-11-yl}-1λ^6,4-thiomorpholine-1,1-dione], the 50% inhibitory concentration (IC50) was less than 0.01 µM.

On to `[2H]C([2H])([2H])c1nnn(C)c1-c1cnc2c3c(OC)ncc(S(C)(=O)=O)c3n([C@H](c3ccccc3)C3CCOCC3)c2c1` [Example 47, 10-Methanesulfonyl-13-methoxy-5-[4-(^2H3)methyl-1-methyl-1H-1,2,3-triazol-5-yl]-8-[(S)-oxan-4-yl(phenyl)methyl]-3,8,12-triazatricyclo[7.4.0.0^2,^7]trideca-1(13),2(7),3,5,9,11-hexaene], for which the IC50 is less than 0.001 µM.

In the case of `[2H]C([2H])([2H])c1nnn(C)c1-c1cnc2c3c(N[C@@H](C)C4CC4)ncc(S(C)(=O)=O)c3n([C@H](c3ccccc3)C3CCOCC3)c2c1` [Example 113, N-[(1S)-1-Cyclopropylethyl]-10-methanesulfonyl-5-[4-(^2H3)methyl-1-methyl-1H-1,2,3-triazol-5-yl]-8-[(S)-oxan-4-yl(phenyl)methyl]-3,8,12-triazatricyclo[7.4.0.0^2,^7]trideca-1(13),2(7),3,5,9,11-hexaen-13-amine], the half-maximal inhibitory concentration (IC50) is less than 0.001 µM.

With `CCCC(c1ncccc1F)n1c2cc(-c3c(C)nnn3C)ncc2c2ncc(C(C)(C)O)cc21` (single isomer, unassigned) [Example 370], the 50% inhibitory concentration (IC50) was less than 0.01 µM.

Regarding `[2H]C([2H])([2H])c1nnn(C)c1-c1cnc2c3cc(C(=O)OC)cnc3n([C@H](c3ccccc3)C3CCOCC3)c2c1` [Example 348, Methyl 5-[4-(^2H3)methyl-1-methyl-1H-1,2,3-triazol-5-yl]-8-[(S)-oxan-4-yl(phenyl)methyl]-3,8,10-triazatricyclo[7.4.0.0^2,^7]trideca-1(13),2(7),3,5,9,11-hexaene-12-carboxylate], the IC50 is less than 0.01 µM.

For `CCc1nnn(C)c1-c1cnc2c3cnc(C(C)(C)O)cc3n([C@H](c3ccccc3)C3CCOCC3)c2c1` [Example 340, 2-[5-(4-Ethyl-1-methyl-1H-1,2,3-triazol-5-yl)-8-[(S)-oxan-4-yl(phenyl)methyl]-3,8,12-triazatricyclo[7.4.0.0^2,^7]trideca-1(9),2(7),3,5,10,12-hexaen-11-yl]propan-2-ol], the IC50 is less than 0.01 µM.

Turning to `Cc1nnn(C)c1-c1cnc2c3ccc(NC(=O)OC(C)C)nc3n([C@H](c3ccccc3)C3CCOCC3)c2c1` [Example 206, Propan-2-yl N-[5-(dimethyl-1H-1,2,3-triazol-5-yl)-8-[(S)-oxan-4-yl(phenyl)methyl]-3,8,10-triazatricyclo[7.4.0.0^2,^7]trideca-1(9),2(7),3,5,10,12-hexaen-11-yl]carbamate], the concentration for half-maximal inhibition (IC50) is less than 0.01 µM.

For the molecule `Cc1nnn(C)c1-c1cnc2c3ccnc(N4CCOCC4)c3n([C@H](c3ccccc3)C3CCOCC3)c2c1` [Example 7, 5-(Dimethyl-1H-1,2,3-triazol-5-yl)-10-(morpholin-4-yl)-8-[(S)-oxan-4-yl(phenyl)methyl]-3,8,11-triazatricyclo[7.4.0.0^2,^7]trideca-1(13),2(7),3,5,9,11-hexaene], the IC50 is less than 0.01 µM.

On to `[2H]C([2H])([2H])c1nnn(C)c1-c1cnc2c3ccc(N4CCN(C(C)C)CC4)nc3n([C@H](c3ccccc3)C3CCOCC3)c2c1` [Example 153, 5-[4-(^2H3)Methyl-1-methyl-1H-1,2,3-triazol-5-yl]-8-[(S)-oxan-4-yl(phenyl)methyl]-11-[4-(propan-2-yl)piperazin-1-yl]-3,8,10-triazatricyclo[7.4.0.0^2,^7]trideca-1(9),2(7),3,5,10,12-hexaene], for which the IC50 is less than 0.01 µM.

Turning to `CSc1nccc2c3ncc(-c4c(C)nnn4C)cc3n([C@H](c3ccccc3F)C3CCOCC3)c12` [Example 31, 5-(Dimethyl-1H-1,2,3-triazol-5-yl)-8-[(S)-(2-fluorophenyl)(oxan-4-yl)methyl]-10-(methylsulfanyl)-3,8,11-triazatricyclo[7.4.0.0^2,^7]trideca-1(13),2(7),3,5,9,11-hexaene], the IC50 is less than 0.01 µM.

In the case of `[2H]C([2H])([2H])c1nnn(C)c1-c1cnc2c3cnc(-c4c(C([2H])([2H])[2H])nnn4C)cc3n([C@H](c3ccc(F)cc3)C3CCOCC3)c2c1` [Example 160, 8-[(S)-(4-Fluorophenyl)(oxan-4-yl)methyl]-5,11-bis[4-(^2H3)methyl-1-methyl-1H-1,2,3-triazol-5-yl]-3,8,12-triazatricyclo[7.4.0.0^2,^7]trideca-1(13),2(7),3,5,9,11-hexaene], the IC50 is less than 0.01 µM.

Turning to `[2H]C([2H])([2H])c1nnn(C)c1-c1cnc2c3c(OCC)ncc(S(C)(=O)=O)c3n([C@H](c3ccc(F)cc3)C3CCOCC3)c2c1` [Example 77, 13-Ethoxy-8-[(S)-(4-fluorophenyl)(oxan-4-yl)methyl]-10-methanesulfonyl-5-[4-(^2H3)methyl-1-methyl-1H-1,2,3-triazol-5-yl]-3,8,12-triazatricyclo[7.4.0.0^2,^7]trideca-1(13),2(7),3,5,9,11-hexaene], the IC50 is less than 0.001 µM.

Consider `[2H]C([2H])([2H])c1nnn(C)c1-c1cnc2c3ccc(N4CC(C)S(=O)(=O)C(C)C4)nc3n([C@H](c3ccccc3)C3CCOCC3)c2c1` (stereo partly drawn) [Example 193, 2,6-Dimethyl-4-{5-[4-(^2H3)methyl-1-methyl-1H-1,2,3-triazol-5-yl]-8-[(S)-oxan-4-yl(phenyl)methyl]-3,8,10-triazatricyclo[7.4.0.0^2,^7]trideca-1(9),2(7),3,5,10,12-hexaen-11-yl}-1λ^6,4-thiomorpholine-1,1-dione], for which the IC50 is less than 0.001 µM.

On to `[2H]C([2H])([2H])c1nnn(C)c1-c1cnc2c3ccc(N4CCNCC4)nc3n([C@H](c3ccccc3)C3CCOCC3)c2c1` [Example 251, 5-[4-(^2H3)Methyl-1-methyl-1H-1,2,3-triazol-5-yl]-8-[(S)-oxan-4-yl(phenyl)methyl]-11-(piperazin-1-yl)-3,8,10-triazatricyclo[7.4.0.0^2,^7]trideca-1(13),2(7),3,5,9,11-hexaene], for which the half-maximal inhibitory concentration (IC50) is less than 0.01 µM.

In the case of `[2H]C([2H])([2H])c1nnn(C)c1-c1cnc2c3cnc(C(C)(C)O)c(F)c3n([C@H](c3ccccc3)C3CCOCC3)c2c1` [Example 278, 2-{10-Fluoro-5-[4-(^2H3)methyl-1-methyl-1H-1,2,3-triazol-5-yl]-8-[(S)-oxan-4-yl(phenyl)methyl]-3,8,12-triazatricyclo[7.4.0.0^2,^7]trideca-1(13),2(7),3,5,9,11-hexaen-11-yl}propan-2-ol], the IC50 is less than 0.001 µM.
